Measured values published in paper PMC6240685, “Strong Inhibitory Effect, Low Cytotoxicity and High Plasma Stability of Steroidal Inhibitors of N-Methyl-D-Aspartate Receptors With C-3 Amide Structural Motif” (Frontiers in Pharmacology, 2018).

Key:
GluN1/GluN2C receptors = molecular target: T1, GluN1/GluN2C receptors (Rattus norvegicus, UniProt P35439+Q00961); assay: Patch-clamp inhibition of GluN1/GluN2C receptors in transfected HEK293 cells; assay type: cell-based; conditions: 1 mM glutamate and 10 μM glycine
T1 construct: expressed in transfected cells; host or cells: HEK293
Protocol: FIGURE 7 Concentration–response properties of compound 6 on GluN1/GluN2A-D receptors. (A) Examples of traces obtained from HEK293 cells transfected with cDNAs encoding GluN1/GluN2A, GluN1/GluN2B, GluN1/GluN2C, and GluN1/GluN2D receptors. Agonists (1 mM glutamate and 10 μM glycine) were applied alone and simultaneously with compound 6 (10 μM) to evaluate the inhibitory effect of compound 6 on NMDAR mediated currents (duration of glutamate and steroid application is indicated by filled and open bars, respectively). (B) Concentration–response curves for the compound 6 effect at GluN1/GluN2A-D receptors. Data points are averaged values of normalized responses from at least four HEK293 cells. Error bars represent SD.
Electrophysiological experiments were performed on HEK293 cells transfected with plasmids encoding rat GluN1-1a/GluN2A-D and GFP genes as described previously, ([Petrovic et al., 2005]; [Cais et al., 2008]; [Korinek et al., 2010]) or on primary hippocampal neurons prepared from P0–P1 rats, plated on collagen/poly-D-lysine-coated glass coverslips at a density of ∼50,000 cells/cm^2, and grown in Neurobasal A medium with B27 Supplement (Gibco). Agonist-induced responses were voltage-clamped at a holding potential of −60 mV. […] Agonist-induced responses were low-pass filtered at 2 kHz, digitally sampled at 5 kHz, and analyzed with pClamp software version 10.5 (Molecular Devices). […]

[1] = Plasma stability, human plasma; assay type: in vitro ADME; conditions: human, plasma
Protocol: Then, 37.8 μL of stock solution was added to 1400 μL of human plasma, maintained at 37°C. Aliquots (50 μL) withdrawn at 0, 1, 4, 8, and 24 h were analyzed by HPLC. […] The supernatant was transferred to an autosampler vial and 1 μL was injected onto LC-MS system. The samples were analyzed with an Agilent 1260 HPLC (Agilent Technologies) coupled to ESI-TOF Agilent 6530 (Agilent Technologies) with Agilent Jet Stream Technology. Samples were separated on a Waters ACQUITY UPLC CSH Phenyl-Hexyl (100 × 2.1, 130 Å, 1.7 μm) at a flow rate 0.3 ml/min. […] The mass spectrometry instrument was operated in a negative ion mode with a voltage of +3.00 kV applied to the capillary. The temperature, the flow rate of the nitrogen drying gas, the pressure of the nitrogen nebulizing gas, and the flow rate of the sheath gas were set at 325°C, 10 l/min, 40 psi, 390°C, and 11 l/min, respectively. Results are represented as a percentage of a compound remaining in spiked human plasma.

T1 sequence (Q00961 20-1237, other chains not shown): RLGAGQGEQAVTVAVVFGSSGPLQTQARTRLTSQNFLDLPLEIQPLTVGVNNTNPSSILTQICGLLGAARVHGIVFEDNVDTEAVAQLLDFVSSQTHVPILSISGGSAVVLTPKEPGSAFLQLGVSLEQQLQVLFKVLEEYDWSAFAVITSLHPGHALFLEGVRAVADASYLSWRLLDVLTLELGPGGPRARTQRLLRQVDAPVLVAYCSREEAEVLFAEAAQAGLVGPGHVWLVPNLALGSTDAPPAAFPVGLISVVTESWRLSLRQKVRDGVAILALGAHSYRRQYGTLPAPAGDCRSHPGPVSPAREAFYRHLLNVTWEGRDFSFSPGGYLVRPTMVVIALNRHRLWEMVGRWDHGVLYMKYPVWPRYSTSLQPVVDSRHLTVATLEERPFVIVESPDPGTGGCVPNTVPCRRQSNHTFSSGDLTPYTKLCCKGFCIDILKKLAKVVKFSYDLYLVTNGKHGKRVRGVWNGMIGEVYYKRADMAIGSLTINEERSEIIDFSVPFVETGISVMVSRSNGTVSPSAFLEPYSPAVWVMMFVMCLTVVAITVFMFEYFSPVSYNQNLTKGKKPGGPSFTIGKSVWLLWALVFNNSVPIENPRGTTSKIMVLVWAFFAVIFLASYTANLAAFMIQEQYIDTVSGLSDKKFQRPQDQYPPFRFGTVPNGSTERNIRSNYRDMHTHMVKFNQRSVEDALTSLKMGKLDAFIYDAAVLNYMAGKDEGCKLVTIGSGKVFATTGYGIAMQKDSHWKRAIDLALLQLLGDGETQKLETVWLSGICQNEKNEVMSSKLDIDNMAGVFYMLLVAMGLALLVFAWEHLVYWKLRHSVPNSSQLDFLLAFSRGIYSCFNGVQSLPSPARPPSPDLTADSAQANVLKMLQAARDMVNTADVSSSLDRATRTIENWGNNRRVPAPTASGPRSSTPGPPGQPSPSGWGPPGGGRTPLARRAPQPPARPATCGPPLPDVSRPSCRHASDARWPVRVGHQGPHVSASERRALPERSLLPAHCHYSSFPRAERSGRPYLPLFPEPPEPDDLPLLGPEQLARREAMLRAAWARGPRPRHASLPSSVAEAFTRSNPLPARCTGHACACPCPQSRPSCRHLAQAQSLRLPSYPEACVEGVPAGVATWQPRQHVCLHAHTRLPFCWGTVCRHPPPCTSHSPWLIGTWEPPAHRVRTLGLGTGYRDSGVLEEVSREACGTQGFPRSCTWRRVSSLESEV

## C[C@@]12CCC[C@H]1[C@@H]1CC[C@@H]3C[C@H](NC(=O)[C@@H](N)CC(=O)O)CC[C@]3(C)[C@H]1CC2 [Compound 6, (S)-3-amino-4-(((3R,5R,8S,9S,10S,13S,14S)-10,13-dimethylhexadecahydro-1H-cyclopenta[a]phenanthren-3-yl)amino)-4-oxobutanoic acid]
GluN1/GluN2C receptors
  h ± SD (apparent Hill coefficient): 1.6 ± 0.3
GluN1/GluN2C receptors; concentration-response
  IC50: 7.3 ± 0.8 µM
[1]
  remaining at 8 h, 42.1 μg/mL: 100%
